Test results taken from paper PMC12521527, “In vivo self-assembled nano-PROTAC for the dual degradation of AR and HSP90 to overcome castration-resistant prostate cancer resistance” (Signal Transduction and Targeted Therapy, 2025).
Numbered stars: 1 amine (or outer) side, 2 acyl side, 3 side chain; on linkers, the order of the positions; unused ones are H or OH. Square brackets hold non-standard residues; d marks the D form. Peptide text beside a SMILES is read from it. * marks the point of attachment. X2 = CC1(C)C(=O)N(c2ccc(C#N)c(C(F)(F)F)c2)C(=S)N1c1ccc(C(=O)*)c(F)c1; X1 = O=C1CCC(N2C(=O)c3cccc(N(CC(=O)[*:2])[*:1])c3C2=O)C(=O)N1; EuK = O=C(O)CC[C@H](NC(=O)N[C@@H](CCCCN*)C(=O)O)C(=O)O; 2Nal = N[C@@H](Cc1ccc2ccccc2c1)C(=O)O

Key:
AR = experiment: Western blot AR degradation in 22Rv1 cells; format: cell-based
Experimental: All uncropped blots are presented in Supplementary Fig. 26. j, k Representative 22Rv1 cell CLSM images of the degradation of AR after incubation with FITC-labeled Psa-AR for 12 h and quantitative analysis, n = 3 per group. Scale bar: 10 μm. l, m Representative 22Rv1 cell CLSM images of the degradation of HSP90 after incubation with FITC-labeled Psa-AR for 12 h and quantitative analysis, n = 3 per group. Scale bar: 10 μm. n AR-V7 expression in 22Rv1 cells after treatment with PBS, P-AR (20 μM), Psa-AR (20 μM) or Psa-AR (20 μM) combined with MG132 (2 μM) for 48 h, as determined by western blotting. β-Actin was used as an internal reference. o Results of apoptosis in 22Rv1 cells treated with PBS, P-AR (20 μM), or Psa-AR (20 μM) for 48 h, as detected by flow cytometry.
The pretreated cells were resuspended in lysis buffer containing 50 mM Tris-HCl (pH 8.0), 150 mM NaCl, 1% (v/v) Triton X-100, and protease inhibitors. The protein concentration was determined via a BCA kit (Applygen). Each sample ([…]) was subjected to SDS‒PAGE and then transferred to a PVDF membrane. The blots were blocked in 5% (wt/v) blocking buffer. After washing three times with TBST buffer (10 mM TBS solution containing 0.1% (v/v) Tween-20), the blots were incubated with primary antibodies at 4 °C on a shaker for 16 h. After washing with TBST buffer three times, the blot was incubated with secondary antibodies at room temperature on a shaker for 2 h. After being washed three times with TBST buffer, the blots were subsequently scanned on a Typhoon Trio Variable Mode Imager.

PSMA protein = PSMA protein (Homo sapiens, UniProt Q04609); experiment: MST binding affinity, Psa-AR and PSMA protein; conditions: RED-NHS-labeled PSMA 400 nM, PBS-T (0.05% Tween 20), 22 °C, n = 3, read-out: Kd, binding affinity between Psa-AR and PSMA
Experimental: Fig. 1 Protein-induced self-assembly behaviors of Psa-AR in vitro. a Six tissue samples from patients with prostate tumors (1–6) and six from patients with normal prostates (1’–6’) were obtained clinically. The expression of CRBN in these samples was analyzed by immunohistochemistry (IHC).
(§1) MST (NanoTemper Technologies GmbH, Munich, Germany) was utilized to evaluate the binding affinity between Psa-AR and RED-NHS-labeled PSMA, AR, or CRBN proteins. The PSMA, AR, and CRBN proteins were labeled with the Protein Labeling Kit RED-NHS 2nd Generation (Amine Reactive). RED-PSMA, RED-AR, and RED-CRBN proteins were diluted to a final concentration of 400 nM with PBS-T buffer (0.05% Tween 20), where the fluorescence signals satisfied the typical detection limit of the Monolith NT.115 instrument (NanoTemper Technologies). The binding affinity between Psa-AR and the RED-NHS-labeled AR protein was assessed. […] Then, 10 µL of RED-CRBN was added to each sample to achieve a final concentration of 400 nM. After incubation for 20 min, the samples were loaded into standard/premium-treated capillaries. All the experiments were performed at 22 °C. The data were analyzed by NanoTemper analysis software.

22Rv1 xenograft tumor = experiment: Antitumor efficacy in 22Rv1 xenograft mice; format: in vivo, BALB/c nude mice; conditions: dose study, intravenous every 48 h, five cycles, 20 days
AR protein = target: T1, AR protein (Homo sapiens, UniProt P10275); experiment: MST binding affinity, Psa-AR and AR protein; conditions: RED-NHS-labeled AR 400 nM, PBS-T, 22 °C, n = 3, read-out: Kd, binding affinity between Psa-AR and AR
T1 sequence (P10275 1-920): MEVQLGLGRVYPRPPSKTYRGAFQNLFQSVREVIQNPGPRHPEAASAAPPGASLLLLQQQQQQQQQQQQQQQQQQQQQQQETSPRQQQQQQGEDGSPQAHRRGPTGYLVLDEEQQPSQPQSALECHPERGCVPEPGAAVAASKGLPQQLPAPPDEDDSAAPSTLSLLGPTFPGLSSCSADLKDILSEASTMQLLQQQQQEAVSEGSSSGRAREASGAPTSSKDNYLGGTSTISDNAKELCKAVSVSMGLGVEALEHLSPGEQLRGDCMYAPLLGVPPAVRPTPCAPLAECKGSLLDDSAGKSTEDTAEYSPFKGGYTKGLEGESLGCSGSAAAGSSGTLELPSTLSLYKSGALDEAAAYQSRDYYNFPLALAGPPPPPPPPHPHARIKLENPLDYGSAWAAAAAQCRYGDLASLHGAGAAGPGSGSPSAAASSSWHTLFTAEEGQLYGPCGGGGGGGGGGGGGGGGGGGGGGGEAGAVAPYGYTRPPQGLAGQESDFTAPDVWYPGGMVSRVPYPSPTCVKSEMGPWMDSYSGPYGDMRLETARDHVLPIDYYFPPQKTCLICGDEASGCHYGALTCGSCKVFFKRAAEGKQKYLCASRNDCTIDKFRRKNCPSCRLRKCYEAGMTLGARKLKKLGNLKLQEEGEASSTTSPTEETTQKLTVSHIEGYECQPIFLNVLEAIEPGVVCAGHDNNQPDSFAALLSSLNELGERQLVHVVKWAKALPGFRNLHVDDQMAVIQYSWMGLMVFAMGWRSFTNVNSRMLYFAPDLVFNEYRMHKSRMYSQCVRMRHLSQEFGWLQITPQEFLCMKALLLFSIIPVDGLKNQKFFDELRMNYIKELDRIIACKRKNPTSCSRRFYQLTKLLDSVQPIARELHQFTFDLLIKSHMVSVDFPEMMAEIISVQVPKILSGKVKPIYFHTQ
Source text: Fig. 3 Polynary nanocomposite (AR: Psa-AR: CRBN) formation. a Dose‒response curve for the binding interaction between Psa-AR and the AR protein; n = 3 per group. b Dose‒response curve for the binding interaction between Psa-AR and the CRBN protein; n = 3 per group. c Dose‒response curve for the binding interaction between the binary complex (Psa-AR: AR) and CRBN, n = 3 per group. d In vitro Psa-AR self-assembly, protein binding and degradation. e Representative 22Rv1 cell CLSM images of FITC-labeled Psa-AR assembly (green channel) interacting with HSP90 (red channel) and its colocalization analysis (1–1’). […] Scale bar: 10 μm.
as §1, with “After incubation for 20 min, the samples were loaded into standard/premium-treated capillaries. All the experiments were performed at 22 °C.” left out

[1] = western blot, 22Rv1, 20 μM, 48 h

PSMA protein, sequence (Q04609 whole entry): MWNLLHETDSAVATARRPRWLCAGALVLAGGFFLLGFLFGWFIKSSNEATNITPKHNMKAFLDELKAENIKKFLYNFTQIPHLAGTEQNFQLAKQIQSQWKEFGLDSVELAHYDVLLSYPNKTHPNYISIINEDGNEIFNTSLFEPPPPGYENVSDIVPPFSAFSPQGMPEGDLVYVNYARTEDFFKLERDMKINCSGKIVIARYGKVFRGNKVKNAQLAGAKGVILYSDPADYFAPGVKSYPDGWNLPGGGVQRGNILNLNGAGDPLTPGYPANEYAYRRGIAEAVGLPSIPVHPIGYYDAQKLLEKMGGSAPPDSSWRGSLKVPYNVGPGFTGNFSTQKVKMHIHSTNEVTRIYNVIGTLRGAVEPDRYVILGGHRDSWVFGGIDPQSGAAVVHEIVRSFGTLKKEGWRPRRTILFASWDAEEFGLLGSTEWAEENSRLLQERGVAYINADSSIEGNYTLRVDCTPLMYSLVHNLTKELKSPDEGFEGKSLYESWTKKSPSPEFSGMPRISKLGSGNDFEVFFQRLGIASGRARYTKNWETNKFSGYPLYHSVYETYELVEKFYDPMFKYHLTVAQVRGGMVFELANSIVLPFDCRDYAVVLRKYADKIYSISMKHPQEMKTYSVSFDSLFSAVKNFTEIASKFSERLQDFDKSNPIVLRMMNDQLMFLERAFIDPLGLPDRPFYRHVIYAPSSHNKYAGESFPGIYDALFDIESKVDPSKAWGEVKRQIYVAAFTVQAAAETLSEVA

CC1(C)C(=O)N(c2ccc(C#N)c(C(F)(F)F)c2)C(=S)N1c1ccc(C(=O)NCCCC[C@H](NC(=O)CNc2cccc3c2C(=O)N(C2CCC(=O)NC2=O)C3=O)C(=O)N[C@@H](CS)C(=O)N[C@@H](CCC(N)=O)C(=O)N[C@@H](Cc2ccc(O)cc2)C(=O)N[C@@H](CC(N)=O)C(=O)N[C@@H](CCC(N)=O)C(=O)N[C@@H](Cc2ccc(O)cc2)C(=O)N[C@@H](Cc2ccc(O)cc2)C(=O)N[C@@H](Cc2ccc3ccccc3c2)C(=O)NCCCC[C@H](NC(=O)N[C@@H](CCC(=O)O)C(=O)O)C(=O)O)c(F)c1 (stereo partly shown) [Psa-AR] (H-[X1]K(X2)CQYNQYY[2Nal]-EuK)
AR protein knockdown maintained within 96-h observation period (AR; 22Rv1, 20 μM, 12–96 h): over 99%
DC50 (AR; 22Rv1 cell line, 1 to 100 μM, read-out: DC50 for AR protein degradation): 9450 nM
AR degradation compared with PBS controls (AR; [1]): 79%
enhancement of AR degradation over P-AR (AR; [1]): 45%
Kd (PSMA protein): 7.2 nM
mean tumor volume at 10 mg/kg (22Rv1 xenograft tumor): 220 mm^3
Kd (AR protein): 950 nM
